From US6790833B2, “Antifungal and antibacterial agents” (priority 2001, dated 2004)
Entries after “also recorded” stand apart in the source; their conditions may differ.

What was measured:
fungi or bacteria = experiment: Antifungal and antibacterial activity assays, overall statements; format: cell-based
Description: (§1) Two fold serial dilutions of each peptide (ranging from 100 μM down to 1.5625 μM) in 20 μl of 10 mM Na phosphate buffer, pH 7.4, were incubated with an equal volume of bacterial or fungal strain (10^5 cells/ml) for 1.5 hours at 30° C. for S. cerevisiae and 37° C. for the rest of strains tested. At the end of incubation, the samples were diluted 20 fold and aliquots (˜120 cells) of each sample were plated on appropriate plates depending on the strain tested, as indicated above. Plates were incubated for 1 to 7 days aerobically or anaerobically, depending on the strain tested. Colonies were then counted, and the loss of cell viability was plotted as a function of protein concentration. Fungicidal activities against C. albicans and C. neoformans were also tested at 4° C.
(§2) A time course study of peptide-induced killing was statistically analyzed by student t-test.

C. neoformans [1] = experiment: Antifungal (cidal) activity assay, loss of cell viability; format: cell-based, Cryptococcus neoformans; conditions: for ED50 (95% confidence limit) C. neoformans: Example 2, 1.5 hours, 37°, 10 mM Na phosphate buffer pH 7.4; for Loss of Cell viability (%): 6.25 μM
Text: (§3) Azole-sensitive (# 2-76) and azole-resistant (# 12-99) clinical isolates of C. albicans were a gift from Dr. Theodore C. White (University of Washington and Seattle Biomedical Research Institute, Seattle, Wash.). An azole-sensitive Candida glabrata (C. glabrata) was purchased from ATCC (ATCC 90030) and its azole-resistant counterpart, clinical isolate 65C, was obtained from Dr. John E. Bennett (National Institute of Allergy and Infectious Diseases, Bethesda, Md.). A clinical isolate of Candida krusei (C. krusei) was obtained from the Erie County Medical Center, Buffalo, N.Y. Amphotericin B-sensitive (CN2) and -resistant (CN2843) C. neoformans strains were obtained from AIDS patients with cryptococcal meningitis and were generously provided by Dr. John H. Rex (University of Texas Medical School, Houston, Tex.). Additionally, Saccharomyces cerevisiae (S. serevisiae) strain S288C was provided by Dr. D. Kosman, Department of Biochemistry, University at Buffalo, the State University of New York. All fungi were streaked and grown on SAB plates at 37° C., except S. cerevisiae, which was grown at 30° C. until large colonies were formed. One colony was then picked and resuspended in Na phosphate buffer (pH 7.4) and the concentration was adjusted to 1×10^5 cell/ml for the antifungal assay described below.
as §1
(§4) To test the effect of inhibitors of oxidative phosphorylation in the mitochondrial system on peptide-induced killing, C. albicans and C. neoformans (CN2) were preincubated with either 20 mM sodium azide or 300 μM CCCP for 2 hours at 37° C. The cidal assays were then carried out as described above. In separate control experiments, both inhibitors were evaluated for their toxicity toward C. albicans and C. neoformans (CN2) in the absence of peptides. At these concentrations, neither compound had any cidal effect. In addition, the fungicidal activities of MUC7 20-mer and Hsn-5 (25 μM) in 10 mM Na phosphate buffer (pH 7.4) in the presence of varying concentrations (1-50 mM) of Ca^++ (as CaCl2) or Mg^++ (as MgCl2) were examined.
as §2
(§5) Two fold serial dilutions of each peptide (ranging from 50 or 25 μM down to 1.5625 μM) in 20 μl of 10 mM Na phosphate buffer, pH 7.4, were incubated with an equal volume of fungal strain (10^5 cells/ml, also in Na phosphate buffer) for 1.5 hours at 37°. At the end of incubation, the samples were diluted 20 fold with the same buffer and aliquots (˜150 cells) of each sample were plated on SAB plates. Plates were incubated for 1 to 2 days for C. albicans and C. neoformans, respectively. Colonies were then counted, and the loss of cell viability was plotted as a function of protein concentration. The statistical analysis was as described in Example 1.

C. albicans [2] = experiment: as above; format: cell-based, Candida albicans; conditions: for ED50 (95% confidence limit) C. albicans: Example 2, 1.5 hours, 37°, 10 mM Na phosphate buffer pH 7.4; for Loss of Cell viability (%): 6.25 μM
Text: as §3, §1, §4, §2, §5

C. albicans [3] = experiment: Fluorescence light and confocal microscopy, internalization of FITC-labeled peptide; format: cell-based, Candida albicans; conditions: 50 μM, 45-90 minutes, 37° C.
Description: (§6) The internalization of MUC7 20-mer into fungi was visualized in C. albicans and C. neoformans. Untreated cells (10^7) or cells preincubated with 20 mM sodium azide, 300 μM CCCP, 50 mM Ca^++ or 50 mM Mg^++ were then treated with 50 μM FITC-MUC7 20-mer for 45-90 minutes in 100 μl of Na phosphate buffer (10 mM, pH 7.4) at 37° C. Untreated cells were also incubated with 50 μM FITC-MUC7 20-mer at 4° C. The cells were then extensively washed with phosphate buffer, concentrated and resuspended in the same buffer. The cell suspension was then quickly mounted on slides with sealed cover-slips. Fluorescence light micrographs were made on a Nikon Optiphot microscope, with a fluorescent light source.
(§7) The intracellular localization of FITC-MUC7-20mer was investigated in a double-labeling experiment using MitoTracker Red mitochondrial probe. C. albicans and C. neoformans were incubated with 500 nM MitoTracker Red in 10 mM Na phosphate buffer, pH 7.4 for 15 minutes at room temperature, washed three times with the same buffer, and subsequently incubated with 50 μM FITC-MUC7 20-mer. After 20 min. incubation at 37° C., the suspension was washed with phosphate buffer extensively. The cell suspension was then quickly mounted on slides with sealed cover-slips. Confocal fluorescence microscopy was performed with a BioRad MRC-1024 confocal microscope system with Krypton-argon laser which outputs 488, 568 and 647 nm excitation line and Nikon upright epifluorescence microscope (Zeiss 60× oil immersion planApp objective with 1.4 numerical aperture).
(§8) The internalization of MUC7 20-mer and 12-mer-3 into fungi was visualized using FITC labeled peptides. Cells (10^7) were treated with 50 μM FITC-MUC7 20-mer or 12-mer-3 for 45-90 mins in 100 μl of Na phosphate buffer (10 mM, pH 7.4) at 37° C. The cells were then processed and visualized as described in Example 1.

C. neoformans [4] = experiment: as above; format: cell-based, Cryptococcus neoformans; conditions: 50 μM, 45-90 minutes, 37° C.
Description: as §6, §7, §8

A. actinomycetemcomitans = experiment: Antibacterial (cidal) activity assay, loss of cell viability; format: cell-based, Actinobacillus actinomycetemcomitans
Description: (§9) The following bacterial strains were tested: Streptococcus mutans (S. mutans) GS-5, Streptococcus gordonii (S. gordonii) Challis, Escherichia coli (E. coli) HB101, Pseudomonas aeruginosa (P. aeruginosa) ATCC 17648, Actinobacillus actinomycetemcomitans (A. actinomycetemcomitans) NCTC9710, Porphyromonas gingivalis (P. gingivalis) 381 and W50. S. mutans, S. gordonii, A. actinomycetemcomitans and P. aeruginosa were grown anaerobically by candle jar extinction at 37° C. on TSB plates. P. gingivalis was grown in anaerobic chamber at 37° C. on sheep blood agar plates. E. coli was grown aerobically at 37° C. on LB agar plates.
as §1, with “Plates were incubated for 1 to 7 days aerobically or anaerobically, depending on the strain tested.” left out, “Fungicidal activities against C. albicans and C. neoformans were also tested at 4° C.” left out
as §2

S. mutans = experiment: as above; format: cell-based; conditions: Streptococcus mutans, read-out: ED50 (95% confident limit)
Description: as §9
as §1, with “Plates were incubated for 1 to 7 days aerobically or anaerobically, depending on the strain tested.” left out, “Fungicidal activities against C. albicans and C. neoformans were also tested at 4° C.” left out
as §2

“12-mer (amino acids 40-51 of MUC7D1), SEQ ID NO.6: RKSYKCLHKRCR (OTHER INFORMATION: 12-mer; Amino acids 40-51 of the MUC7D1 peptide.) [Peptide 12-mer]” was tested, and the “cidal activity against fungi or bacteria” value (fungi or bacteria) was “active against a variety of fungi and bacteria”.
“12-mer with arginine and lysine at position 40 and 41 replaced by alanine, SEQ ID NO.11: AASYKCLHKRCR (OTHER INFORMATION: 12-mer-2 variant of the 12-mer) [Peptide 12-mer-2]” was tested, and the “ED50 (95% confidence limit) C. neoformans” value (C. neoformans [1]) was “comparable to that of unaltered 12-mer”.
For “12-mer with both cysteines replaced by alanine, SEQ ID NO.13: RKSYKALHKRAR (OTHER INFORMATION: 12-mer-4 variant of the 12-mer) [Peptide 12-mer-4]”, the “ED50 (95% confidence limit) C. albicans” value (C. albicans [2]) was “did not alter 12-mer antifungal activity” and the “ED50 (95% confidence limit) C. neoformans” value (C. neoformans [1]) was “did not alter 12-mer antifungal activity”.
For “12-mer with positions 40, 41, 44, 48, 49 and 51 replaced by alanine, SEQ ID NO.12: AASYACLHAACA (OTHER INFORMATION: 12-mer-3 variant of the 12-mer) [Peptide 12-mer-3]”, the “ED50 (95% confidence limit) C. albicans” value (C. albicans [2]) was “no anticandidal activity”, the “ED50 (95% confidence limit) C. neoformans” value (C. neoformans [1]) was “cidal activity was diminished; also recorded: No activity” and the “internalization of FITC-labeled peptide” value (C. albicans [3]) was “No internalization”. The “internalization of FITC-labeled peptide” value (C. neoformans [4]) was “No internalization”.
For `C[C@H](NC(=O)[C@H](Cc1cnc[nH]1)NC(=O)[C@H](CO)NC(=O)[C@@H](N)CC(=O)O)C(=O)N[C@@H](CCCCN)C(=O)N[C@@H](CCCNC(=N)N)C(=O)N[C@@H](Cc1cnc[nH]1)C(=O)N[C@@H](Cc1cnc[nH]1)C(=O)NCC(=O)N[C@@H](Cc1ccc(O)cc1)C(=O)N[C@@H](CCCCN)C(=O)N[C@@H](CCCNC(=N)N)C(=O)N[C@@H](CCCCN)C(=O)N[C@@H](Cc1ccccc1)C(=O)N[C@@H](Cc1cnc[nH]1)C(=O)N[C@@H](CCC(=O)O)C(=O)N[C@@H](CCCCN)C(=O)N[C@@H](Cc1cnc[nH]1)C(=O)N[C@@H](Cc1cnc[nH]1)C(=O)N[C@@H](CO)C(=O)N[C@@H](Cc1cnc[nH]1)C(=O)N[C@@H](CCCNC(=N)N)C(=O)NCC(=O)N[C@@H](Cc1ccc(O)cc1)C(=O)O` [Hsn-5, reference compound], the “effect of pretreatment with CCCP or sodium azide on peptide-induced killing” value (C. albicans [2]; C. albicans, 300 μM CCCP or 20 mM sodium azide, 2 hours) was “rescued Candida cells from killing”, the “potency at 4° C.” value (C. albicans [2]; C. albicans, 4° C.) was “limited potency” and the “Loss of Cell viability (%)” value (C. albicans [2]; C. albicans, 5 min) was 0 + 0%. The “Loss of Cell viability (%)” value (C. albicans [2]; C. albicans, 15 min) was 1 + 3%, the “Loss of Cell viability (%)” value (C. albicans [2]; C. albicans, 30 min) was 11 + 4% and the “Loss of Cell viability (%)” value (C. albicans [2]; C. albicans, 45 min) was 34 + 2%. For the same compound, the “Loss of Cell viability (%)” value (C. albicans [2]; C. albicans, 90 min) was 42 + 3%, the “Peptide-induced killing without the cations” value (C. albicans [2]; C. albicans, Na phosphate buffer, 25 μM) was 100% and the “effect of pretreatment with CCCP or sodium azide on peptide-induced killing” value (C. neoformans [1]; C. neoformans, 300 μM CCCP or 20 mM sodium azide, 2 hours) was “unable to do the same”. For the same compound, the “activity at 4° C.” value (C. neoformans [1]; C. neoformans, 4° C.) was “hardly affected”, the “Loss of Cell viability (%)” value (C. neoformans [1]; C. neoformans, 5 min) was 9 ± 2% and the “Loss of Cell viability (%)” value (C. neoformans [1]; C. neoformans, 15 min) was 43 + 3%. For the same compound, the “Loss of Cell viability (%)” value (C. neoformans [1]; C. neoformans, 30 min) was 59 + 5%, the “Loss of Cell viability (%)” value (C. neoformans [1]; C. neoformans, 45 min) was 64 + 1% and the “Loss of Cell viability (%)” value (C. neoformans [1]; C. neoformans, 90 min) was 71 + 7%. The “Peptide-induced killing without the cations” value (C. neoformans [1]; C. neoformans, Na phosphate buffer, 25 μM) was 100%, the “loss of cell viability at the highest concentration tested” value (A. actinomycetemcomitans; 100 μM) was 24% and the “concentration for killing bacteria relative to killing fungi” value (fungi or bacteria) was “more than 10 fold”.
Compound `[H]/N=C(/N)N[C@H]1[C@H](O)[C@@H](O)[C@H](O[C@@H]2O[C@@H](C)[C@](O)(C=O)[C@H]2O[C@@H]2O[C@@H](CO)[C@H](O)[C@@H](O)[C@@H]2NC)[C@@H](N/C(N)=N\[H])[C@@H]1O` [streptomycin] has an EC50 (A. actinomycetemcomitans; Aggregatibacter actinomycetemcomitans, read-out: ED50 (95% confident limit)) of 2.7 µM and an EC50 (S. mutans) of 64 µM.
With “from the N-terminus of the 20-mer (amino acids 32-39), SEQ ID NO.10: LAHQKPFI (OTHER INFORMATION: 8-mer-N; Amino acids 32-3 9 of the MUC7D1 peptide.) [Peptide 8-mer-N]” the “ED50 (95% confidence limit) C. albicans” value (C. albicans [2]) was “No activity”, the “ED50 (95% confidence limit) C. albicans” value (C. albicans [2]; listed as N-terminal 8-mer) was “no antifungal activity” and the “ED50 (95% confidence limit) C. neoformans” value (C. neoformans [1]) was “No activity”. The “ED50 (95% confidence limit) C. neoformans” value (C. neoformans [1]; listed as N-terminal 8-mer) was “no antifungal activity” and the antibacterial activity (fungi or bacteria) was “did not exhibit antibacterial activity”.
